In PubChem BioAssay (NCI):
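Each compound was tested at five concentrations against cells in 96-well plates for 48 hours. At the GI50, growth is halved. TGI denotes the concentration required for complete inhibition of growth.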

Legend:
Assay in all cases: growth of human tumour cells (NCI), 48 h
A498 renal = system: A498 renal
U251 CNS = system: U251 CNS
LOX IMVI melanoma = system: LOX IMVI melanoma
M14 melanoma = system: M14 melanoma
HCT-15 colon = system: HCT-15 colon
EKVX NSCLC = system: EKVX NSCLC
HT29 colon = system: HT29 colon
RPMI-8226 leukemia = system: RPMI-8226 leukemia
SF-268 CNS = system: SF-268 CNS
OVCAR-4 ovarian = system: OVCAR-4 ovarian
NCI/ADR-RES ovarian = system: NCI/ADR-RES ovarian
MOLT-4 leukemia = system: MOLT-4 leukemia
HCC-2998 colon = system: HCC-2998 colon
RXF 393 renal = system: RXF 393 renal
HOP-92 NSCLC = system: HOP-92 NSCLC
UACC-62 melanoma = system: UACC-62 melanoma
NCI-H23 lung = system: NCI-H23 lung
HCT-116 colon = system: HCT-116 colon
HS 578T breast = system: HS 578T breast
DU-145 prostate = system: DU-145 prostate
SK-MEL-5 melanoma = system: SK-MEL-5 melanoma
NCI-H460 lung = system: NCI-H460 lung
HL-60(TB) leukemia = system: HL-60(TB) leukemia
IGROV1 ovarian = system: IGROV1 ovarian
786-0 renal = system: 786-0 renal
A549 NSCLC = system: A549 NSCLC
CAKI-1 renal = system: CAKI-1 renal
SW-620 colon = system: SW-620 colon
MDA-MB-468 breast = system: MDA-MB-468 breast
K-562 leukemia = system: K-562 leukemia
MCF7 breast = system: MCF7 breast
UO-31 renal = system: UO-31 renal
SN12C renal = system: SN12C renal
SF-295 CNS = system: SF-295 CNS
MDA-MB-231 breast = system: MDA-MB-231 breast
SNB-19 CNS = system: SNB-19 CNS
SF-539 CNS = system: SF-539 CNS
SNB-75 CNS = system: SNB-75 CNS
SK-MEL-2 melanoma = system: SK-MEL-2 melanoma
BT-549 breast = system: BT-549 breast
ACHN renal = system: ACHN renal
NCI-H522 lung = system: NCI-H522 lung
HOP-62 NSCLC = system: HOP-62 NSCLC
TK-10 renal = system: TK-10 renal
SK-MEL-28 melanoma = system: SK-MEL-28 melanoma
PC-3 prostate = system: PC-3 prostate
OVCAR-5 ovarian = system: OVCAR-5 ovarian
SK-OV-3 ovarian = system: SK-OV-3 ovarian
COLO 205 colon = system: COLO 205 colon
T-47D breast = system: T-47D breast
UACC-257 melanoma = system: UACC-257 melanoma
KM12 colon = system: KM12 colon
OVCAR-8 ovarian = system: OVCAR-8 ovarian
MDA-MB-435 = system: MDA-MB-435
CCRF-CEM leukemia = system: CCRF-CEM leukemia
NCI-H226 lung = system: NCI-H226 lung
OVCAR-3 ovarian = system: OVCAR-3 ovarian
SR leukemia = system: SR leukemia
MALME-3M melanoma = system: MALME-3M melanoma

Compound: Nc1nnc(-c2c[nH]c3ncc(Br)cc23)c(-c2c[nH]c3ccc(Br)cc23)n1
- GI50 (A498 renal): 13.7 µM
- TGI (A498 renal): 29 µM
- GI50 (U251 CNS): 10.1 µM
- TGI (U251 CNS): 29.7 µM
- GI50 (LOX IMVI melanoma): 5.39 µM
- TGI (LOX IMVI melanoma): 23.3 µM
- GI50 (M14 melanoma): 4.67 µM
- TGI (M14 melanoma): 22.2 µM
- GI50 (HCT-15 colon): 4.41 µM
- TGI (HCT-15 colon): 19.1 µM
- GI50 (EKVX NSCLC): 10.2 µM
- TGI (EKVX NSCLC): 26.3 µM
- GI50 (HT29 colon): 5.74 µM
- TGI (HT29 colon): 26 µM
- GI50 (RPMI-8226 leukemia): 4.68 µM
- TGI (RPMI-8226 leukemia): 50.4 µM
- GI50 (SF-268 CNS): 8.72 µM
- TGI (SF-268 CNS): 34 µM
- GI50 (OVCAR-4 ovarian): 5.78 µM
- TGI (OVCAR-4 ovarian): 21.7 µM
- GI50 (NCI/ADR-RES ovarian): 13.4 µM
- TGI (NCI/ADR-RES ovarian): 36.4 µM
- GI50 (MOLT-4 leukemia): 1.89 µM
- TGI (MOLT-4 leukemia): 12.7 µM
- GI50 (HCC-2998 colon): 14 µM
- TGI (HCC-2998 colon): 28.9 µM
- GI50 (RXF 393 renal): 1.78 µM
- TGI (RXF 393 renal): 7.03 µM
- GI50 (HOP-92 NSCLC): 4.06 µM
- TGI (HOP-92 NSCLC): 24.3 µM
- GI50 (UACC-62 melanoma): 3.79 µM
- TGI (UACC-62 melanoma): 18.8 µM
- GI50 (NCI-H23 lung): 11.3 µM
- TGI (NCI-H23 lung): 26.2 µM
- GI50 (HCT-116 colon): 3.82 µM
- TGI (HCT-116 colon): 18.9 µM
- GI50 (HS 578T breast): 4.47 µM
- TGI (HS 578T breast): 28.8 µM
- GI50 (DU-145 prostate): 7.24 µM
- TGI (DU-145 prostate): 21.1 µM
- GI50 (SK-MEL-5 melanoma): 3.06 µM
- TGI (SK-MEL-5 melanoma): 13.9 µM
- GI50 (NCI-H460 lung): 5.14 µM
- TGI (NCI-H460 lung): 24.4 µM
- GI50 (HL-60(TB) leukemia): 1.99 µM
- TGI (HL-60(TB) leukemia): 16.3 µM
- GI50 (IGROV1 ovarian): 6.29 µM
- TGI (IGROV1 ovarian): 24.4 µM
- GI50 (786-0 renal): 8.24 µM
- TGI (786-0 renal): 23.2 µM
- GI50 (A549 NSCLC): 10.9 µM
- TGI (A549 NSCLC): 44.5 µM
- GI50 (CAKI-1 renal): 4.02 µM
- TGI (CAKI-1 renal): 17.9 µM
- GI50 (SW-620 colon): 5.32 µM
- TGI (SW-620 colon): 27.2 µM
- GI50 (MDA-MB-468 breast): 1.57 µM
- TGI (MDA-MB-468 breast): 8.83 µM
- GI50 (K-562 leukemia): 0.497 µM
- TGI (K-562 leukemia): 16.8 µM
- GI50 (MCF7 breast): 0.92 µM
- TGI (MCF7 breast): 18.5 µM
- GI50 (UO-31 renal): 4.58 µM
- TGI (UO-31 renal): 20.7 µM
- GI50 (SN12C renal): 7.31 µM
- TGI (SN12C renal): 23.6 µM
- GI50 (SF-295 CNS): 5.4 µM
- TGI (SF-295 CNS): 20.8 µM
- GI50 (MDA-MB-231 breast): 13.1 µM
- TGI (MDA-MB-231 breast): 32.5 µM
- GI50 (SNB-19 CNS): 10.9 µM
- TGI (SNB-19 CNS): 33.7 µM
- GI50 (SF-539 CNS): 3.48 µM
- TGI (SF-539 CNS): 17.2 µM
- GI50 (SNB-75 CNS): 1.56 µM
- TGI (SNB-75 CNS): 8.26 µM
- GI50 (SK-MEL-2 melanoma): 6.31 µM
- TGI (SK-MEL-2 melanoma): 23.1 µM
- GI50 (BT-549 breast): 2.71 µM
- TGI (BT-549 breast): 12 µM
- GI50 (ACHN renal): 6.04 µM
- TGI (ACHN renal): 19.6 µM
- GI50 (NCI-H522 lung): 0.403 µM
- TGI (NCI-H522 lung): 15.3 µM
- GI50 (HOP-62 NSCLC): 5.26 µM
- TGI (HOP-62 NSCLC): 20.2 µM
- GI50 (TK-10 renal): 15.1 µM
- TGI (TK-10 renal): 33.5 µM
- GI50 (SK-MEL-28 melanoma): 10.5 µM
- TGI (SK-MEL-28 melanoma): 24.4 µM
- GI50 (PC-3 prostate): 3.6 µM
- TGI (PC-3 prostate): 22.4 µM
- GI50 (OVCAR-5 ovarian): 10.8 µM
- TGI (OVCAR-5 ovarian): 27.3 µM
- GI50 (SK-OV-3 ovarian): 10.6 µM
- TGI (SK-OV-3 ovarian): 24.4 µM
- GI50 (COLO 205 colon): 3.35 µM
- TGI (COLO 205 colon): 14.9 µM
- GI50 (T-47D breast): 4.16 µM
- TGI (T-47D breast): 26.2 µM
- GI50 (UACC-257 melanoma): 12.4 µM
- TGI (UACC-257 melanoma): 29.7 µM
- GI50 (KM12 colon): 6.18 µM
- TGI (KM12 colon): 23.6 µM
- GI50 (OVCAR-8 ovarian): 10.4 µM
- TGI (OVCAR-8 ovarian): 30.4 µM
- GI50 (MDA-MB-435): 0.379 µM
- TGI (MDA-MB-435): 16.1 µM
- GI50 (CCRF-CEM leukemia): 2.33 µM
- TGI (CCRF-CEM leukemia): > 100 µM
- GI50 (NCI-H226 lung): 3.77 µM
- TGI (NCI-H226 lung): 26.9 µM
- GI50 (OVCAR-3 ovarian): 3 µM
- TGI (OVCAR-3 ovarian): 12.7 µM
- GI50 (SR leukemia): 0.378 µM
- TGI (SR leukemia): 14.8 µM
- GI50 (MALME-3M melanoma): 4.61 µM
- TGI (MALME-3M melanoma): 25.8 µM
